Key:
Conditions in all cases: Compound concentration 10 µM
[1] = molecular target: T1, D(4) dopamine receptor (Homo sapiens) (UniProt P21917)
T1 sequence (whole entry): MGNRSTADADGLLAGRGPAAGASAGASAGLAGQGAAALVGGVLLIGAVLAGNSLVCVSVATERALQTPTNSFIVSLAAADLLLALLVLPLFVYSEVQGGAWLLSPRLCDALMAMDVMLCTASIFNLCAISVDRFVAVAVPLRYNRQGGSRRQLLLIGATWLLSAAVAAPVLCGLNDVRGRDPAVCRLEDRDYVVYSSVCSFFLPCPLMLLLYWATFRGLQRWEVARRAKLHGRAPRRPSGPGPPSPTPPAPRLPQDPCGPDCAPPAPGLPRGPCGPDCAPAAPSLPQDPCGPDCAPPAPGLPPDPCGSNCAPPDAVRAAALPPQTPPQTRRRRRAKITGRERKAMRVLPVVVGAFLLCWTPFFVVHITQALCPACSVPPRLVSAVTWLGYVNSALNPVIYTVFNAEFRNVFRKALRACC
Description: PDSP Primary Binding target: DRD4 - Compounds are tested at 10 uM concentration, plate are incubated at room temperature in the dark for 90 minutes. Reaction are stopped by vacuum filtration onto 0.3% polyethyleneimine soaked filter mats using Filtermate harvester. Scintilation cocktail is then melted onto microwave-dried filters on a hot plate and the radio activity is counted in Microbia counter.

[2] = molecular target: Sigma intracellular receptor 2 (Homo sapiens) (UniProt Q5BJF2)
Description: PDSP Primary Binding target: TMEM97 - Compounds are tested at 10 uM concentration, plate are incubated at room temperature in the dark for 90 minutes. Reaction are stopped by vacuum filtration onto 0.3% polyethyleneimine soaked filter mats using Filtermate harvester. Scintilation cocktail is then melted onto microwave-dried filters on a hot plate and the radio activity is counted in Microbia counter.

[3] = molecular target: Beta-2 adrenergic receptor (Homo sapiens) (UniProt P07550)
Description: PDSP Primary Binding target: ADRB2 - Compounds are tested at 10 uM concentration, plate are incubated at room temperature in the dark for 90 minutes. Reaction are stopped by vacuum filtration onto 0.3% polyethyleneimine soaked filter mats using Filtermate harvester. Scintilation cocktail is then melted onto microwave-dried filters on a hot plate and the radio activity is counted in Microbia counter.

[4] = molecular target: T2, Alpha-2A adrenergic receptor (Homo sapiens) (UniProt P08913)
T2 sequence (whole entry): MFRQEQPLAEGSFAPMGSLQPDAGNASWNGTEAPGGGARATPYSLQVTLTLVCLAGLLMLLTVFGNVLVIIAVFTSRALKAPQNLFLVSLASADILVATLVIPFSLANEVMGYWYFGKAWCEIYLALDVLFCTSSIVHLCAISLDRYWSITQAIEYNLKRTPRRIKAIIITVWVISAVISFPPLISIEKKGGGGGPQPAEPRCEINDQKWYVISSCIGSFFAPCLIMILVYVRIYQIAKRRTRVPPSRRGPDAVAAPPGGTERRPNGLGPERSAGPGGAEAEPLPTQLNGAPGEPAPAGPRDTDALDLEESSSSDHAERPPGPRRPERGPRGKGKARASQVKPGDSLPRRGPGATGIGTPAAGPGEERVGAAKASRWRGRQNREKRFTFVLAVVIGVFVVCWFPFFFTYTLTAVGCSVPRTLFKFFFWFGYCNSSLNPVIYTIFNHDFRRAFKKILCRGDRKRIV
Description: PDSP Primary Binding target: ADRA2A - Compounds are tested at 10 uM concentration, plate are incubated at room temperature in the dark for 90 minutes. Reaction are stopped by vacuum filtration onto 0.3% polyethyleneimine soaked filter mats using Filtermate harvester. Scintilation cocktail is then melted onto microwave-dried filters on a hot plate and the radio activity is counted in Microbia counter.

[5] = molecular target: 5-hydroxytryptamine receptor 1B (Homo sapiens) (UniProt P28222)
Description: PDSP Primary Binding target: HTR1B - Compounds are tested at 10 uM concentration, plate are incubated at room temperature in the dark for 90 minutes. Reaction are stopped by vacuum filtration onto 0.3% polyethyleneimine soaked filter mats using Filtermate harvester. Scintilation cocktail is then melted onto microwave-dried filters on a hot plate and the radio activity is counted in Microbia counter.

[6] = molecular target: 5-hydroxytryptamine receptor 2B (Homo sapiens) (UniProt P41595)
Description: PDSP Primary Binding target: HTR2B - Compounds are tested at 10 uM concentration, plate are incubated at room temperature in the dark for 90 minutes. Reaction are stopped by vacuum filtration onto 0.3% polyethyleneimine soaked filter mats using Filtermate harvester. Scintilation cocktail is then melted onto microwave-dried filters on a hot plate and the radio activity is counted in Microbia counter.

[7] = molecular target: Muscarinic acetylcholine receptor M3 (Homo sapiens) (UniProt P20309)
Description: PDSP Primary Binding target: CHRM3 - Compounds are tested at 10 uM concentration, plate are incubated at room temperature in the dark for 90 minutes. Reaction are stopped by vacuum filtration onto 0.3% polyethyleneimine soaked filter mats using Filtermate harvester. Scintilation cocktail is then melted onto microwave-dried filters on a hot plate and the radio activity is counted in Microbia counter.

[8] = molecular target: T3, Alpha-2C adrenergic receptor (Homo sapiens) (UniProt P18825)
T3 sequence (whole entry): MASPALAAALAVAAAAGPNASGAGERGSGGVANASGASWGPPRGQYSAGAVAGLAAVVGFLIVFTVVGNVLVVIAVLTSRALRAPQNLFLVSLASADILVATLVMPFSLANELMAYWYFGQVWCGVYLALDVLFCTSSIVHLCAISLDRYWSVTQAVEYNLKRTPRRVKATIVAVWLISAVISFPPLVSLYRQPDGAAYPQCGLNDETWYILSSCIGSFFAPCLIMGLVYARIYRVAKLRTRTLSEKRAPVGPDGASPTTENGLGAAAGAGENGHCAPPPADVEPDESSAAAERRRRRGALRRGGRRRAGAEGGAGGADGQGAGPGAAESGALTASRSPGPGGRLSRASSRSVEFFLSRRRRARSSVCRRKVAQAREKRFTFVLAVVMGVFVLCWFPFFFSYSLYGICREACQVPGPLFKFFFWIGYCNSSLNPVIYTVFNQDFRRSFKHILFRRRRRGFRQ
Description: PDSP Primary Binding target: ADRA2C - Compounds are tested at 10 uM concentration, plate are incubated at room temperature in the dark for 90 minutes. Reaction are stopped by vacuum filtration onto 0.3% polyethyleneimine soaked filter mats using Filtermate harvester. Scintilation cocktail is then melted onto microwave-dried filters on a hot plate and the radio activity is counted in Microbia counter.

[9] = molecular target: 5-hydroxytryptamine receptor 1E (Homo sapiens) (UniProt P28566)
Description: PDSP Primary Binding target: HTR1E - Compounds are tested at 10 uM concentration, plate are incubated at room temperature in the dark for 90 minutes. Reaction are stopped by vacuum filtration onto 0.3% polyethyleneimine soaked filter mats using Filtermate harvester. Scintilation cocktail is then melted onto microwave-dried filters on a hot plate and the radio activity is counted in Microbia counter.

[10] = molecular target: T4, Muscarinic acetylcholine receptor M1 (Homo sapiens) (UniProt P11229)
T4 sequence (whole entry): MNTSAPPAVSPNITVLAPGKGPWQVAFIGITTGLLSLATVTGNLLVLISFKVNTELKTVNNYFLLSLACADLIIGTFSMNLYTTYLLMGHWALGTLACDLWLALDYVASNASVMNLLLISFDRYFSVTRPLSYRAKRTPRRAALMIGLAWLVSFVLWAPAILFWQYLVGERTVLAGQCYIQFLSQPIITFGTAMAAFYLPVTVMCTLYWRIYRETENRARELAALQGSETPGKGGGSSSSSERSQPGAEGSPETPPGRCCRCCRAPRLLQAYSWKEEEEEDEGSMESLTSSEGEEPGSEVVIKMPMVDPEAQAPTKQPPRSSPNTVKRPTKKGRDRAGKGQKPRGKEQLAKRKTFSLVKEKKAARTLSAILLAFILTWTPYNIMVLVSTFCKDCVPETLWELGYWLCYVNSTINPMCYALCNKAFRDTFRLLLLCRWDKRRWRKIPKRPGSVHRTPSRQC
Description: PDSP Primary Binding target: CHRM1 - Compounds are tested at 10 uM concentration, plate are incubated at room temperature in the dark for 90 minutes. Reaction are stopped by vacuum filtration onto 0.3% polyethyleneimine soaked filter mats using Filtermate harvester. Scintilation cocktail is then melted onto microwave-dried filters on a hot plate and the radio activity is counted in Microbia counter.

[11] = molecular target: 5-hydroxytryptamine receptor 5A (Homo sapiens) (UniProt P47898)
Description: PDSP Primary Binding target: HTR5A - Compounds are tested at 10 uM concentration, plate are incubated at room temperature in the dark for 90 minutes. Reaction are stopped by vacuum filtration onto 0.3% polyethyleneimine soaked filter mats using Filtermate harvester. Scintilation cocktail is then melted onto microwave-dried filters on a hot plate and the radio activity is counted in Microbia counter.

[12] = molecular target: T5, Muscarinic acetylcholine receptor M2 (Homo sapiens) (UniProt P08172)
T5 sequence (whole entry): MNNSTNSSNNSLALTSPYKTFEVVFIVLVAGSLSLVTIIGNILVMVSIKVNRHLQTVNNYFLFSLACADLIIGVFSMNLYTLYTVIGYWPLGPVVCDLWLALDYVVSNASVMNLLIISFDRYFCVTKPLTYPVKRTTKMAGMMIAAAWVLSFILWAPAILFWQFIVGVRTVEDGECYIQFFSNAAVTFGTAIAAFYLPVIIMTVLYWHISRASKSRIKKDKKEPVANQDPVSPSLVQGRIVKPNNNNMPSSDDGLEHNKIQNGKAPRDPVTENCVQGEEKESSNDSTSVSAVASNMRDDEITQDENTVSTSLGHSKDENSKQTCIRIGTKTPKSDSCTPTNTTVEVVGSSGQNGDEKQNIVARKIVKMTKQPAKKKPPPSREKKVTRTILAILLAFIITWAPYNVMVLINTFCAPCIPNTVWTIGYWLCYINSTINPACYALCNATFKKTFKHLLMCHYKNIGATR
Description: PDSP Primary Binding target: CHRM2 - Compounds are tested at 10 uM concentration, plate are incubated at room temperature in the dark for 90 minutes. Reaction are stopped by vacuum filtration onto 0.3% polyethyleneimine soaked filter mats using Filtermate harvester. Scintilation cocktail is then melted onto microwave-dried filters on a hot plate and the radio activity is counted in Microbia counter.

5-hydroxytryptamine receptor 2B (Homo sapiens), sequence (P41595 whole entry): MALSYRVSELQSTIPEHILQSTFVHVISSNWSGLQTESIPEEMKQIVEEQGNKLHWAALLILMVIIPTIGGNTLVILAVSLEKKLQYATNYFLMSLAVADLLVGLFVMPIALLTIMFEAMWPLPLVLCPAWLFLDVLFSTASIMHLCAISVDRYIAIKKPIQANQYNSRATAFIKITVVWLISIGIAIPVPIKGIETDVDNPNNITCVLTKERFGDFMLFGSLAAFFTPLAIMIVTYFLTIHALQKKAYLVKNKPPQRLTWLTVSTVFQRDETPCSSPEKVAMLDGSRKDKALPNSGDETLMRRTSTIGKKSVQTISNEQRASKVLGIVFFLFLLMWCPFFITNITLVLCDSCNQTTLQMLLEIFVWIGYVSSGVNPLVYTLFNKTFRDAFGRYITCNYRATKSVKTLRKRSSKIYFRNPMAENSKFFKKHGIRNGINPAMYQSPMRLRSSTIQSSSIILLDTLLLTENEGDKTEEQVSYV
5-hydroxytryptamine receptor 1E (Homo sapiens), sequence (P28566 whole entry): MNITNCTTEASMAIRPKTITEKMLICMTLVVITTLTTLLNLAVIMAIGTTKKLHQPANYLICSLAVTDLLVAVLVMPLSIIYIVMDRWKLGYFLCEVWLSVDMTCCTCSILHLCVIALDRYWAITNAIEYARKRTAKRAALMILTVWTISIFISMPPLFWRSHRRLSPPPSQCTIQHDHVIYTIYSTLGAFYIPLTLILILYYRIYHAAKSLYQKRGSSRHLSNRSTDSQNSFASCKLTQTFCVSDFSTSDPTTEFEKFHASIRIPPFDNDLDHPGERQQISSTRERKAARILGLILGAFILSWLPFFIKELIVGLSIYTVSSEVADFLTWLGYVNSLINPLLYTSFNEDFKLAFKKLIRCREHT
Muscarinic acetylcholine receptor M3 (Homo sapiens), sequence (P20309 whole entry, looked up): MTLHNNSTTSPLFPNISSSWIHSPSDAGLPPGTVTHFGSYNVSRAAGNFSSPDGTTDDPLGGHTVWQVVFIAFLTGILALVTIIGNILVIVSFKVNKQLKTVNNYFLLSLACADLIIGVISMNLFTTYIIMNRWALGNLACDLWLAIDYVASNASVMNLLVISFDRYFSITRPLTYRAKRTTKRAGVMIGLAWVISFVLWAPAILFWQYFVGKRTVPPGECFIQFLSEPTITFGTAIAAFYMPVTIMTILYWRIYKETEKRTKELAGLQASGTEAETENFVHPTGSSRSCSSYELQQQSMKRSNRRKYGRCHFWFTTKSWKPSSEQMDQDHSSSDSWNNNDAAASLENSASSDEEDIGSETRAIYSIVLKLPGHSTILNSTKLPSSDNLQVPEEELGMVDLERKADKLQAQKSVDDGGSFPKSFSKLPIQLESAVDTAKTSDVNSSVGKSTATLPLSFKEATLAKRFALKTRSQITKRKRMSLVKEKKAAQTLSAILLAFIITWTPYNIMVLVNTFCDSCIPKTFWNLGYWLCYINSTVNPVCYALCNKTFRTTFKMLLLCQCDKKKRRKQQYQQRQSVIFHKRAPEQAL
Beta-2 adrenergic receptor (Homo sapiens), sequence (P07550 whole entry, looked up): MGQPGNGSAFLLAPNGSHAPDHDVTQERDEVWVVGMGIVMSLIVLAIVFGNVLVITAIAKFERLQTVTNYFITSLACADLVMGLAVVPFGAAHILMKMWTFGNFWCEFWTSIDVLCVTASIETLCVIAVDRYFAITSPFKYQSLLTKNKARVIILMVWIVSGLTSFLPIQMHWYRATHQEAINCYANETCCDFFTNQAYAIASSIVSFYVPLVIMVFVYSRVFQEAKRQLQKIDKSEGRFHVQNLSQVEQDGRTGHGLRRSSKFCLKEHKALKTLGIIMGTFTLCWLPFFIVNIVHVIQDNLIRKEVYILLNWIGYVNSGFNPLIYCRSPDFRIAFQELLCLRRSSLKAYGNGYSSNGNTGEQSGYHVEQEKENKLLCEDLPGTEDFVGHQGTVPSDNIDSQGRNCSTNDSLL
Sigma intracellular receptor 2 (Homo sapiens), sequence (Q5BJF2 whole entry): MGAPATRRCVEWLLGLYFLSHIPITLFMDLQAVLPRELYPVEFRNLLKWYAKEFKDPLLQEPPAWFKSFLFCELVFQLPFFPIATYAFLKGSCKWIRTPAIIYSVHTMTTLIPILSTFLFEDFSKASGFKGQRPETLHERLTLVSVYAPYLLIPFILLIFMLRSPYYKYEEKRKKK
5-hydroxytryptamine receptor 5A (Homo sapiens), sequence (P47898 whole entry): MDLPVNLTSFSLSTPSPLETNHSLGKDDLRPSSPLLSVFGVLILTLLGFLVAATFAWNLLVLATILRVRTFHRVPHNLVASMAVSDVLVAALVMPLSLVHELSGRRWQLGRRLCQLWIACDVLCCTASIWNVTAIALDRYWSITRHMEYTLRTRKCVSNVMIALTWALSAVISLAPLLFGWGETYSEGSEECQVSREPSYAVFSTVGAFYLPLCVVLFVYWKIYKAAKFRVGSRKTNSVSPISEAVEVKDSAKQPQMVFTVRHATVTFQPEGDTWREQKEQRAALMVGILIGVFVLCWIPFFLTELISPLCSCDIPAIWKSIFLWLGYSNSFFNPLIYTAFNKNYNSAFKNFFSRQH
5-hydroxytryptamine receptor 1B (Homo sapiens), sequence (P28222 whole entry): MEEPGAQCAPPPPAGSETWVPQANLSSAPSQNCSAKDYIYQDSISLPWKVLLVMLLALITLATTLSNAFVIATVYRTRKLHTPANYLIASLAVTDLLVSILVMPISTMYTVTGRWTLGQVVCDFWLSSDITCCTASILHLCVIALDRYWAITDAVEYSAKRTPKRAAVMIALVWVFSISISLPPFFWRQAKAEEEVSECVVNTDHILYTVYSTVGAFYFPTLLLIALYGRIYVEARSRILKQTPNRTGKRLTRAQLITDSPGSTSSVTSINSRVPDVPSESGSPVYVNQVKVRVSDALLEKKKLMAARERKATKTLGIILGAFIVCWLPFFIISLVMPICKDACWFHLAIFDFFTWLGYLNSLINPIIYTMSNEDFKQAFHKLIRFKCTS

SMILES	inhibition [1]	inhibition [2]	inhibition [3]	inhibition [4]	inhibition [5]	inhibition [6]	inhibition [7]	inhibition [8]	inhibition [9]	inhibition [10]	inhibition [11]	inhibition [12]
COc1ccc2[nH]cc(CCNC(C)=O)c2c1	1.97%	22.1%	-1.29%	8.96%	12.5%	49.5%	–	–	–	–	–	–
O=C1N/C(=N/c2ccccc2F)S/C1=C\c1ccc(C(=O)O)cc1	79.2%	33.9%	6.54%	–	-8.69%	-3.68%	-5.5%	2.98%	4.25%	17.1%	–	–
CCc1nn2c(C)cc(C)nc2c1Cc1ccc(-c2nnc(C3CCNCC3)o2)cc1	-4.88%	80.3%	12.5%	42.9%	16.6%	9.86%	–	31.1%	12.6%	–	3.02%	–
O=C(O)COc1cccc(CN(Cc2ccc(-n3cccn3)cc2)S(=O)(=O)c2cccnc2)c1	4.77%	4.27%	-8.36%	-8.07%	12.1%	5.26%	7.64%	-2.57%	14.9%	3.45%	–	–
CCOC(=O)c1cc(C#N)c(N2CCC(C(=O)NS(=O)(=O)Cc3ccccc3)CC2)nc1C	7.97%	4.45%	-1.62%	–	–	–	–	-0.84%	-8.79%	–	-2.81%	68.1%
CC1CCN(CC[C@H]2CCCN2S(=O)(=O)c2cccc(O)c2)CC1	22.1%	98.2%	-9.8%	65.6%	78.2%	15.4%	0.09%	51.5%	7.28%	-8.14%	91.7%	–
CN1C[C@H](C(=O)N[C@]2(C)O[C@@]3(O)[C@@H]4CCCN4C(=O)[C@H](Cc4ccccc4)N3C2=O)C[C@@H]2c3cccc4[nH]cc(c34)C[C@H]21	100%	93.6%	18.1%	99.6%	104%	82.8%	–	115%	76.1%	–	97.6%	4.48%
N#Cc1c(N)nc(SCc2csc(-c3ccc(Cl)cc3)n2)c(C#N)c1-c1ccc(OCCO)cc1	38.4%	36.6%	17%	26.7%	13%	62.1%	–	3.52%	-9.34%	-3.33%	-4.31%	–
CNC[C@H](O)c1ccc(O)c(O)c1	20.1%	12.3%	34.2%	49.1%	11.1%	1.88%	–	66.7%	-5.3%	–	-0.93%	–
C[C@]1(C(=O)N(CCCC(=O)O)Cc2cccc(Cl)c2)CCN1C(=O)c1csc2ccccc12	4.3%	-7.28%	–	10.9%	–	-7.25%	–	–	-8.85%	5.11%	-1.31%	–
CCCn1c(=O)c2nc(C34CC5CC(CC3C5)C4)[nH]c2n(CCC)c1=O	1.06%	39.6%	4.88%	10%	19.3%	43.5%	–	9.01%	14.2%	–	–	–
Cc1cc(C)c(N)c(C#Cc2cccc(F)c2)n1	-9.97%	15.9%	19.8%	4.3%	16.6%	29.9%	-6.32%	13.5%	20.1%	–	-5.73%	–
CN1CCC(=C2c3ccccc3CC(=O)c3sccc32)CC1	25.6%	91.3%	25.3%	80.9%	63.1%	98.4%	–	42.7%	27.9%	–	43.5%	75.2%
CCC(=O)NCC[C@@H]1CCc2ccc3c(c21)CCO3	-3.2%	47.4%	12.6%	18.4%	15.8%	72%	–	-9.25%	-5.33%	-3.08%	21.8%	–
COc1cc2nc(N3CCN(C(=O)c4ccco4)CC3)nc(N)c2cc1OC	27.4%	27.6%	1.53%	42.3%	27.2%	54.3%	–	97.1%	2.33%	–	83.4%	15.9%
Brc1c(NC2=NCCN2)ccc2nccnc12	16.9%	66.9%	-1.17%	103%	7.31%	22.7%	–	75.6%	–	–	–	–
CC(C)(C(=O)O)c1ccc(C(O)CCCN2CCC(C(O)(c3ccccc3)c3ccccc3)CC2)cc1 (centres undefined)	19.6%	39.2%	-5.98%	-4.3%	8.43%	67.8%	–	-7.6%	-8.04%	–	–	–
Clc1cccc(Cl)c1NC1=NCCN1	-2.87%	66.3%	-4.25%	103%	13.1%	93.8%	–	84.7%	9.4%	–	20.1%	–
COC(=O)[C@H]1[C@H]2C[C@H]3c4[nH]c5ccccc5c4CCN3C[C@H]2CC[C@@H]1O	40.2%	22.8%	-6.47%	98.3%	98.4%	94.3%	–	98.7%	96%	–	48.2%	–

— ChEMBL document CHEMBL5442219
